This passage reports IC50 results from ChEMBL document CHEMBL1158874, “Elgonica-Dimers A and B, Two Potent Alcohol Metabolism Inhibitory Constituents of Aloe arborescens” (J Nat Prod, 1997).

The target of test [1] is T1, Aldehyde dehydrogenase, cytosolic 1 (Rattus norvegicus, UniProt P13601).
T1 sequence (P13601 whole entry): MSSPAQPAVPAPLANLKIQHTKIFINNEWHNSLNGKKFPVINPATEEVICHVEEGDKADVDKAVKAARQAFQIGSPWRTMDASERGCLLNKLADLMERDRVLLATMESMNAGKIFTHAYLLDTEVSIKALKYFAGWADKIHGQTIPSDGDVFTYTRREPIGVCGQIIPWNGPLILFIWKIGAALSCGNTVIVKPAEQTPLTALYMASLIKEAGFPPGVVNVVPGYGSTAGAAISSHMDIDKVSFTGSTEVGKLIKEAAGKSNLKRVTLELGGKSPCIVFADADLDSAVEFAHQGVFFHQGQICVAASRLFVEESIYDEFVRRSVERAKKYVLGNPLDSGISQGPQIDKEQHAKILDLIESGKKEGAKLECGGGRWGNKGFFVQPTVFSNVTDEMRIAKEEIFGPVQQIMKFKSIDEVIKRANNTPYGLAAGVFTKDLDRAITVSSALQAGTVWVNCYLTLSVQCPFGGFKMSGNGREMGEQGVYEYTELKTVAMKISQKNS
Kind of test: Inhibition of Sprague-Dawley rat cytosolic aldehyde dehydrogenase.

A short description of test [2]: Inhibition of Sprague-Dawley rat cytosolic alcohol dehydrogenase.
Test [3] addresses T2, Aldehyde dehydrogenase, mitochondrial (Rattus norvegicus, UniProt P11884).
T2 sequence (P11884 whole entry): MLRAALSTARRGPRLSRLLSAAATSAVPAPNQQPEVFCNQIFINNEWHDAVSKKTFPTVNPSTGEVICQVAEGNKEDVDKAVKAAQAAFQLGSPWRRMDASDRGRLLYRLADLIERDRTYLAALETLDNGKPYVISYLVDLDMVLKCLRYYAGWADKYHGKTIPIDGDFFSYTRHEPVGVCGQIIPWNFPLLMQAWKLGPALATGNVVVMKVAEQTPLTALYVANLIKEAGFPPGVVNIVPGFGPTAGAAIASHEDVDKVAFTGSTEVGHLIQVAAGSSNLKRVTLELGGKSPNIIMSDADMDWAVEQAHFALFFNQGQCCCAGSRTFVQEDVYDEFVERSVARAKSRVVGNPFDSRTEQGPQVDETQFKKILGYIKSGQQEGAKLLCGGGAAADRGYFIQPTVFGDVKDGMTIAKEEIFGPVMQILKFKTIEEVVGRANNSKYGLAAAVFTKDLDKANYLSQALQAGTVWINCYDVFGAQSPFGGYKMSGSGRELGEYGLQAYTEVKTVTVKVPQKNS
The test is described as follows: Inhibition of Sprague-Dawley rat mitochondrial aldehyde dehydrogenase.

As to `O=C1c2cccc(O)c2C(=O)c2c(O)cc(CO)cc21` [ALOE-EMODIN], the IC50 – broadly, the concentration at which inhibition is half-maximal – in test [1] amounted to 6 µM; in test [2], 24.4 µM.

With `c1cn[nH]c1` [PYRAZOLE], inhibition in test [2] was half-maximal at 9.8 µM (IC50).

For the compound `O=C1c2cc(CO)cc(O)c2C(=O)c2c1ccc(C1(C3O[C@H](CO)[C@@H](O)[C@H](O)[C@H]3O)c3cccc(O)c3C(=O)c3c(O)cc(CO)cc31)c2O` (stereo partly drawn) [listing 1 of 2 here], the half-maximal inhibitory concentration (IC50) in test [1] was 0.16 µM; in test [3] it was 0.36 µM; in test [2], 0.055 µM.

As to `C#CCN(C)Cc1ccccc1` [PARGYLINE], the IC50 worked out at 300 µM in test [1] and 5.6 µM in test [3].

Take `O=C1c2cc(CO)cc(O)c2C(=O)c2c1ccc(C1(C3O[C@H](CO)[C@@H](O)[C@H](O)[C@H]3O)c3cccc(O)c3C(=O)c3c(O)cc(CO)cc31)c2O` (stereo partly drawn) [listing 2 of 2 here]: the IC50 in test [1] is 0.53 µM; in test [3], 0.72 µM; in test [2], 0.011 µM.

`COc1cc(-c2c(C)cc(O)cc2O[C@@H]2O[C@@H](CO)[C@@H](O)[C@H](O)[C@H]2O)oc(=O)c1` [ALOENIN]: the IC50 in test [1] was determined as 27 µM; in test [2], 33.1 µM.
